Laboratory results taken from patent EP0128651A2, “Pyranones and related compounds and methods for their production and use” (WARNER-LAMBERT COMPANY, priority 1983, dated 1984).
Converted amounts (≈) assume the structure as drawn. Marks after values point to notes of the source that are not given here.

What was measured:
L1210 Cells = test: Cytotoxicity against L1210 cells; assay type: cell-based; conditions: Mus musculus, read-out: ID50 (the source's name)
Mouse Colon 38 = test: Animal tumor screening, mouse colon 38; assay type: in vivo; parameters: key: -X= Borderline activity shown.; X= Activity shown. The initial endpoint is less stringent and is indicative of statistical significance.; XX= Outstanding activity shown and a proportion of "cures" produced. The stringent endpoint is indicative of sufficient antitumor selectivity to warrant consideration for development toward clinical trial.; No= No activity shown
Mouse Leukemia L1210 = test: Animal tumor screening, response of L1210 leukemia in mice; assay type: in vivo; parameters: key to Activiity: -X= Borderline activity shown.; X= Activity shown. The initial endpoint is less stringent and is indicative of statistical significance.; XX= Outstanding activity shown and a proportion of "cures" produced. The stringent endpoint is indicative of sufficient antitumor selectivity to warrant consideration for development toward clinical trial.; No= No activity shown; conditions: for T/C(%) / "Cures": Daily x 9
Human Lung Xenograft = test: Animal tumor screening, human lung xenograft; assay type: in vivo; parameters: key: -X= Borderline activity shown.; X= Activity shown. The initial endpoint is less stringent and is indicative of statistical significance.; XX= Outstanding activity shown and a proportion of "cures" produced. The stringent endpoint is indicative of sufficient antitumor selectivity to warrant consideration for development toward clinical trial.; No= No activity shown
Mouse Leukemia P3888 = test: Animal tumor screening, mouse leukemia P388; assay type: in vivo; parameters: key: -X= Borderline activity shown.; X= Activity shown. The initial endpoint is less stringent and is indicative of statistical significance.; XX= Outstanding activity shown and a proportion of "cures" produced. The stringent endpoint is indicative of sufficient antitumor selectivity to warrant consideration for development toward clinical trial.; No= No activity shown
Mluse Lewis Lung = test: Animal tumor screening, mouse Lewis lung; assay type: in vivo; parameters: key: -X= Borderline activity shown.; X= Activity shown. The initial endpoint is less stringent and is indicative of statistical significance.; XX= Outstanding activity shown and a proportion of "cures" produced. The stringent endpoint is indicative of sufficient antitumor selectivity to warrant consideration for development toward clinical trial.; No= No activity shown
Human Mammary Xenograft = test: Animal tumor screening, human mammary xenograft; assay type: in vivo; parameters: key: -X= Borderline activity shown.; X= Activity shown. The initial endpoint is less stringent and is indicative of statistical significance.; XX= Outstanding activity shown and a proportion of "cures" produced. The stringent endpoint is indicative of sufficient antitumor selectivity to warrant consideration for development toward clinical trial.; No= No activity shown
Mouse Mammary CD8F1 = test: Animal tumor screening, mouse mammary CD8F1; assay type: in vivo; parameters: key: -X= Borderline activity shown.; X= Activity shown. The initial endpoint is less stringent and is indicative of statistical significance.; XX= Outstanding activity shown and a proportion of "cures" produced. The stringent endpoint is indicative of sufficient antitumor selectivity to warrant consideration for development toward clinical trial.; No= No activity shown; conditions: treatment started 34 days after tumor implant (advanced-stage tumor)
Mouse Melanoma B16 = test: Animal tumor screening, mouse melanoma B16; assay type: in vivo; parameters: key: -X= Borderline activity shown.; X= Activity shown. The initial endpoint is less stringent and is indicative of statistical significance.; XX= Outstanding activity shown and a proportion of "cures" produced. The stringent endpoint is indicative of sufficient antitumor selectivity to warrant consideration for development toward clinical trial.; No= No activity shown

CC(=O)OCC=CC=CC=CC(CC(OP(=O)(O)O)C(C)(O)C=CC1CC=CC(=O)O1)OC(C)=O.[Na] (stereo not shown) [CL 1565-A Diacetate, Sodium Salt, 6-[6,13-Bis(acetyloxy)-3-hydroxy-3-methyl-4-(phosphonooxy)-1,7,9,11-tridecatetraenyl]-5,6-dihydro-2H-pyran-2-one, sodium salt]
IC50 (L1210 Cells): ~6 mg/L

CC(O)(C=CC1CC=CC(=O)O1)C(O)CC(O)C=CC=CC=CCO (stereo not shown) [CL 1565-A alcohol, 5,6-Dihydro-6-(3,4,6,13-tetrahydroxy-3-methyl-l,7,9, 11-tridecatetraenyl)-2H-pyran-2-one]
IC50 (L1210 Cells): 2.5 mg/L (≈ 7.13 µM)

CC(O)(C=CC1CC=CC(=O)O1)C(CC(O)C=CC=CC=CCO)OP(=O)(O)O (stereo not shown) [CL 1565-A, 5,6-dihydro-6-(3,6,13-trihydroxy-3-methyl-4-(phosphonooxy)-1,7,9,11-tridecatetraenyl)-2H-pyran-2-one]
Activiity (Mouse Colon 38): X | Activiity (Mouse Leukemia L1210; Mouse Leukemia L1210): XX (curative) | T/C(%) (Mouse Leukemia L1210; Test 1, 6.25 mg/kg/dose): 207% | "Cures" (Mouse Leukemia L1210; Test 1, 6.25 mg/kg/dose, 30-day survivors are considered cures): 0/6^e | T/C(%) (Mouse Leukemia L1210; Test 2, 3.12 mg/kg/dose): 191% | "Cures" (Mouse Leukemia L1210; Test 2, 3.12 mg/kg/dose, survivors at completion of observation period): 0/6 | T/C(%) (Mouse Leukemia L1210; Test 2, 6.25 mg/kg/dose): 194% | "Cures" (Mouse Leukemia L1210; Test 2, 6.25 mg/kg/dose, survivors at completion of observation period): 1/6 | T/C(%) (Mouse Leukemia L1210; Test 2, 12.50 mg/kg/dose): 337% | "Cures" (Mouse Leukemia L1210; Test 2, 12.50 mg/kg/dose, survivors at completion of observation period): 3/6 | T/C(%) (Mouse Leukemia L1210; Test 3, 1.56 mg/kg/dose): 150% | "Cures" (Mouse Leukemia L1210; Test 3, 1.56 mg/kg/dose, survivors at completion of observation period): 0/6 | T/C(%) (Mouse Leukemia L1210; Test 3, 3.12 mg/kg/dose): 195% | "Cures" (Mouse Leukemia L1210; Test 3, 3.12 mg/kg/dose, survivors at completion of observation period): 0/6 | T/C(%) (Mouse Leukemia L1210; Test 3, 6.25 mg/kg/dose): 216% | "Cures" (Mouse Leukemia L1210; Test 3, 6.25 mg/kg/dose, survivors at completion of observation period): 0/6 | T/C(%) (Mouse Leukemia L1210; Test 3, 12.50 mg/kg/dose): 246% | "Cures" (Mouse Leukemia L1210; Test 3, 12.50 mg/kg/dose, 45-day observation period): 0/6^f | T/C(%) (Mouse Leukemia L1210; Test 4, 3.12 mg/kg/dose): 194% | "Cures" (Mouse Leukemia L1210; Test 4, 3.12 mg/kg/dose, survivors at completion of observation period): 0/6 | T/C(%) (Mouse Leukemia L1210; Test 4, 6.25 mg/kg/dose): 236% | "Cures" (Mouse Leukemia L1210; Test 4, 6.25 mg/kg/dose, survivors at completion of observation period): 1/6 | T/C(%) (Mouse Leukemia L1210; Test 4, 12.50 mg/kg/dose): 268% | "Cures" (Mouse Leukemia L1210; Test 4, 12.50 mg/kg/dose, survivors at completion of observation period): 0/6^g | curative effect in the L1210 tumor mouse model (Mouse Leukemia L1210; result in words): curative | survival period of mice inoculated with mouse leukemia L1210 (Mouse Leukemia L1210; result in words): significantly prolongs the survival period | Activiity (Human Lung Xenograft): No | Activiity (Mouse Leukemia P3888): X | Activiity (Mluse Lewis Lung): No | Activiity (Human Mammary Xenograft): -X | Activiity (Mouse Mammary CD8F1): Xa | Activiity (Mouse Melanoma B16): No
